{"source": "patent US20060251714A1", "about": "“Pharmaceutical formulations of amyloid inhibiting compounds” (priority 2005, published 2006)", "format_in_all_cases": "in vivo, human", "key": {"[1]": {"assay": "Example 7 Part I: single rising oral doses of NC-758, plasma pharmacokinetics in healthy young and elderly male volunteers", "settings": "for AUC∞: mean, only subjects with estimable elimination rate constant", "description": "(§1) In the following examples and elsewhere herein, terms are as defined below. The pharmacokinetic parameters were derived by non-compartmental analysis using WinNonlin® (Pharsight Corporation, Mountain View, Calif.) or SAS® for Windows® (SAS Institute Inc., Cary, N.C.).\nCmax —the maximum observed plasma concentration.\nTmax—the time of occurrence of Cmax.\nAUC0-t—the area under the plasma concentration versus time curve from time zero to the last sampling time at which concentrations were at or above the limit of quantification, calculated by the linear trapezoidal rule.\nAUC∞—the area under the plasma concentrations versus time curve from time zero to infinity, calculated from AUC0-t+(Clast/λz), where Clast is the last observed quantifiable concentration and λz is the apparent terminal rate constant.\nt1/2—the apparent terminal half-life, calculated from Ln2/λz.\nPart I—The pharmacokinetic profile and the effect of food on single rising oral doses of 3-APS free acid, (modified-release enteric-coated tablet, as described in Table 3 above, hereinafter “NC-758”) in healthy male young (18-45 years) volunteers is determined. For doses at multiples of 100 mg, multiple 100 mg tables are administered. The pharmacokinetics of a single oral dose of NC-758 is also determined in a group of healthy male elderly (≧55 years old) volunteers. The test is a randomized, double-blind, placebo-controlled study to assess the pharmacokinetic profile of 4 single rising oral doses of NC-758 in healthy young (18-45 years) male subjects. Blood samples are collected during 24 h following dosing. Plasma concentrations of 3-APS are determined using a validated LC-MS/MS method."}, "CSF Aβ42": {"test_system": "CSF Aβ42", "assay": "Example 11: additional tests, CSF Aβ42 level and Aβ42/Aβ40 ratio in treated patients", "description": "FIG. 1 Change from Baseline CSF Aβ42 versus 3-APS doses\nFIG. 2 Effect of 3-APS on CSF Aβ42/40 Ratio in Mild-to-Moderate AD Patients—Placebo vs. 150 mg BID\nFIG. 3 Effect of 3-APS on CSF Aβ42/40 Ratio in Mild-to-Moderate AD Patients 0 and 50 mg 3-APS\nFIG. 4 Effect of 3-APS on CSF Aβ42/40 Ratio in Mild-to-Moderate AD Patients 100 and 150 mg 3-APS"}, "[2]": {"assay": "Example 9 Part I: single oral doses of NC-758-1 in healthy elderly volunteers, plasma pharmacokinetics", "settings": "elderly male and female subjects, fasted; for AUC∞: mean, only subjects with estimable elimination rate constant", "description": "as §1\nPart I—The pharmacokinetic profile and the effect of food on single oral doses of 3-APS free acid (modified-release enteric-coated tablet as described in Table 5 above, hereinafter “NC-758-1”) in healthy male and female elderly (≧55 years) volunteers. For doses at multiples of 50 mg, multiple 50 mg tables are administered. The test is an open label, three-period crossover study to assess the pharmacokinetic profile of 3 single oral doses of NC-758-1 in healthy elderly (≧55 years) male and female subjects. The blood samples are collected during 24 h following dosing. Plasma concentrations of 3-APS are determined using a validated LC-MS/MS method."}, "[3]": {"assay": "Example 8 Part I: multiple rising oral doses of NC-758 in healthy young male and elderly subjects, plasma pharmacokinetics", "settings": "fasted; for AUC∞: mean, only subjects with estimable elimination rate constant", "description": "as §1\nThe pharmacokinetic profile of multiple rising oral doses of 3-APS free acid (NC-758 of Table 3 above) in healthy male young subjects (18-45 years) and healthy male and female elderly (≧55 years) subjects is assessed. For doses at multiples of 100 mg, multiple 100 mg tables are administered. […] Part I is a randomized, double-blind, placebo-controlled study to assess the pharmacokinetic profile of 2 multiple rising oral doses of NC-758 in healthy young (18-45 years) male subjects. […] In Part I, 3-APS is administered as a single dose on Days 1 and 12 and on Days 2-11, twice daily at 12 hour intervals. Blood samples are collected through 24 h after the first dose on Day 1, before each morning dose on Days 2 to 11, and through 48 h after the final dose on Day 12. For Part II, blood samples are collected through 36 h. Plasma concentrations of 3-APS are determined using a validated LC-MS/MS method."}, "[4]": {"settings": "200 mg dose, see Tables 9 and 10"}, "[5]": {"settings": "single oral 100 mg NC-758 (Table 3 tablet), young (18-45 years) male subjects, fasted, n = 5, mean"}, "[6]": {"settings": "single oral 200 mg NC-758 (Table 3 tablet), elderly (>55 years) male subjects, fasted, n = 6, mean"}, "[7]": {"settings": "single oral 200 mg NC-758 (Table 3 tablet), young (18-45 years) male subjects, fasted, n = 6, mean"}, "[8]": {"settings": "single oral 300 mg NC-758 (Table 3 tablet), young (18-45 years) male subjects, fasted, n = 5, mean"}, "[9]": {"settings": "single oral 400 mg NC-758 (Table 3 tablet), young (18-45 years) male subjects, fasted, n = 3, mean"}, "[10]": {"settings": "single oral 50 mg NC-758-1 (Table 5 tablet), n = 9, mean"}, "[11]": {"settings": "single oral 100 mg NC-758-1 (Table 5 tablet), n = 9, mean"}, "[12]": {"settings": "single oral 150 mg NC-758-1 (Table 5 tablet), n = 8, mean"}, "[13]": {"settings": "NC-758 100 mg BID, Day 12 (repeated), young (18-45 years) male subjects, n = 6, mean"}, "[14]": {"settings": "NC-758 200 mg BID, Day 1, elderly (≧55 years) male and female subjects, n = 6, mean"}, "[15]": {"settings": "NC-758 200 mg BID, Day 1, young (18-45 years) male subjects, n = 6, mean"}, "[16]": {"settings": "NC-758 200 mg BID, Day 12 (repeated), elderly (≧55 years) male and female subjects, n = 6, mean"}, "[17]": {"settings": "NC-758 200 mg BID, Day 12 (repeated), young (18-45 years) male subjects, n = 5, mean"}}, "data": [{"smiles": "NCCCS(=O)(=O)O", "note": "[3-APS, 3-amino-1-propanesulfonic acid]", "values": [{"measurement": "AUC0-t greater in elderly subjects compared to young subjects", "setting": "[1]; [4]", "value": "approximately 70%"}, {"measurement": "Cmax greater in elderly subjects compared to young subjects", "setting": "[1]; [4]", "value": "approximately 70%"}, {"measurement": "AUC∞", "setting": "[1]; single oral 100 mg NC-758 (Table 3 tablet), young (18-45 years) male subjects, fasted", "value": 1.421, "unit": "µg·h/mL"}, {"measurement": "AUC0-Tlast", "setting": "[1]; [5]", "value": 1.392, "unit": "µg·h/mL"}, {"measurement": "Cmax", "setting": "[1]; [5]", "value": 0.41, "unit": "µg/mL"}, {"measurement": "AUC0-Tlast", "setting": "[1]; [6]", "value": 4.882, "unit": "µg·h/mL"}, {"measurement": "Cmax", "setting": "[1]; [6]", "value": 1.094, "unit": "µg/mL"}, {"measurement": "AUC∞", "setting": "[1]; single oral 200 mg NC-758 (Table 3 tablet), young (18-45 years) male subjects, fasted", "value": 2.492, "unit": "µg·h/mL"}, {"measurement": "AUC0-Tlast", "setting": "[1]; [7]", "value": 2.898, "unit": "µg·h/mL"}, {"measurement": "Cmax", "setting": "[1]; [7]", "value": 0.661, "unit": "µg/mL"}, {"measurement": "AUC∞", "setting": "[1]; single oral 300 mg NC-758 (Table 3 tablet), young (18-45 years) male subjects, fasted", "value": 4.464, "unit": "µg·h/mL"}, {"measurement": "AUC0-Tlast", "setting": "[1]; [8]", "value": 3.999, "unit": "µg·h/mL"}, {"measurement": "Cmax", "setting": "[1]; [8]", "value": 0.904, "unit": "µg/mL"}, {"measurement": "AUC0-Tlast", "setting": "[1]; [9]", "value": 15.966, "unit": "µg·h/mL"}, {"measurement": "Cmax", "setting": "[1]; [9]", "value": 5.367, "unit": "µg/mL"}, {"measurement": "Tmax", "setting": "[1]; single oral 400 mg NC-758 (Table 3 tablet), young (18-45 years) male subjects, fasted, n = 3, median", "value": 2, "unit": "h"}, {"measurement": "CSF Aβ42 levels", "setting": "CSF Aβ42; treated AD patients, FIG. 1", "value": "reduced CSF Aβ42 levels"}, {"measurement": "ratio of Aβ42/Aβ40 (CSF)", "setting": "CSF Aβ42; treated mild-to-moderate AD patients, FIGS. 2, 3 and 4", "value": "reduced the ratio of Aβ42/Aβ40"}, {"measurement": "AUC∞", "setting": "[2]; single oral 50 mg NC-758-1 (Table 5 tablet)", "value": 1.566, "unit": "µg·h/mL"}, {"measurement": "AUC(0-t)", "setting": "[2]; [10]", "value": 1.537, "unit": "µg·h/mL"}, {"measurement": "Cmax", "setting": "[2]; [10]", "value": 0.469, "unit": "µg/mL"}, {"measurement": "AUC∞", "setting": "[2]; single oral 100 mg NC-758-1 (Table 5 tablet)", "value": 2.871, "unit": "µg·h/mL"}, {"measurement": "AUC(0-t)", "setting": "[2]; [11]", "value": 3.128, "unit": "µg·h/mL"}, {"measurement": "Cmax", "setting": "[2]; [11]", "value": 0.745, "unit": "µg/mL"}, {"measurement": "AUC∞", "setting": "[2]; single oral 150 mg NC-758-1 (Table 5 tablet)", "value": 4.497, "unit": "µg·h/mL"}, {"measurement": "AUC(0-t)", "setting": "[2]; [12]", "value": 5.303, "unit": "µg·h/mL"}, {"measurement": "Cmax", "setting": "[2]; [12]", "value": 1.029, "unit": "µg/mL"}, {"measurement": "AUC∞", "setting": "[3]; NC-758 100 mg BID, Day 1, young (18-45 years) male subjects", "value": 1.017, "unit": "µg·h/mL"}, {"measurement": "Cmax", "setting": "[3]; NC-758 100 mg BID, Day 1, young (18-45 years) male subjects, n = 6, mean", "value": 0.282, "unit": "µg/mL"}, {"measurement": "AUC0-12h", "setting": "[3]; [13]", "value": 1.434, "unit": "µg·h/mL"}, {"measurement": "Cmax", "setting": "[3]; [13]", "value": 0.256, "unit": "µg/mL"}, {"measurement": "AUC∞", "setting": "[3]; NC-758 200 mg BID, Day 1, elderly (≧55 years) male and female subjects", "value": 5.503, "unit": "µg·h/mL"}, {"measurement": "AUC0-12h", "setting": "[3]; [14]", "value": 5.02, "unit": "µg·h/mL"}, {"measurement": "Cmax", "setting": "[3]; [14]", "value": 0.897, "unit": "µg/mL"}, {"measurement": "AUC∞", "setting": "[3]; NC-758 200 mg BID, Day 1, young (18-45 years) male subjects", "value": 3.206, "unit": "µg·h/mL"}, {"measurement": "AUC0-12h", "setting": "[3]; [15]", "value": 2.865, "unit": "µg·h/mL"}, {"measurement": "Cmax", "setting": "[3]; [15]", "value": 0.517, "unit": "µg/mL"}, {"measurement": "AUC0-12h", "setting": "[3]; [16]", "value": 6.287, "unit": "µg·h/mL"}, {"measurement": "Cmax", "setting": "[3]; [16]", "value": 0.88, "unit": "µg/mL"}, {"measurement": "AUC0-12h", "setting": "[3]; [17]", "value": 4.152, "unit": "µg·h/mL"}, {"measurement": "Cmax", "setting": "[3]; [17]", "value": 0.581, "unit": "µg/mL"}]}]}
